Reference: ChEMBL document CHEMBL5653631, “A Potent and Selective ULK1 Inhibitor Suppresses Autophagy and Sensitizes Cancer Cells to Nutrient Stress” (iScience, 2018)
One block for each compound: values may come before it.

Legend:
[1] = target: T1, cGMP-dependent protein kinase 1 (Homo sapiens) (UniProt Q13976); test: Inhibition of human recombinant PKG1 at 500 nM related to control ULK1
T1 sequence (whole entry): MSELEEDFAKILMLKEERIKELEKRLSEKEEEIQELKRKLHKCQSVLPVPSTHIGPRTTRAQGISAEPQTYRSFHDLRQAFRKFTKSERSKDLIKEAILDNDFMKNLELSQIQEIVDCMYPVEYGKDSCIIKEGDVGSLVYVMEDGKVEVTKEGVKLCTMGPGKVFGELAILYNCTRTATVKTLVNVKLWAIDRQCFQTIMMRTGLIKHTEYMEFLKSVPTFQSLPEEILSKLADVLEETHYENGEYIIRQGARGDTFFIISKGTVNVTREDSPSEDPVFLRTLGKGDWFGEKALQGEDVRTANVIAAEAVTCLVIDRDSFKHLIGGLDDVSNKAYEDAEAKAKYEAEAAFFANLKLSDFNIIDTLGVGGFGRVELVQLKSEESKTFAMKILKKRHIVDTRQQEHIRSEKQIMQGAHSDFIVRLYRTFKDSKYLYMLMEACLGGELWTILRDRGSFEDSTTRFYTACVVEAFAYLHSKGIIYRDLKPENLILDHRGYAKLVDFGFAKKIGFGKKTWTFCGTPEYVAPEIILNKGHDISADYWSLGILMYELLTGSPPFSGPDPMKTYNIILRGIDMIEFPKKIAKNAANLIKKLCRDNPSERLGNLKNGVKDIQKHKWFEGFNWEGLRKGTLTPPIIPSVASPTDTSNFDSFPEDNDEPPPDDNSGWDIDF

[2] = target: Cyclin-dependent kinase 12 (Homo sapiens) (UniProt Q9NYV4); test: Inhibition of human recombinant CRK7 at 500 nM related to control ULK1
Cyclin-dependent kinase 12 (Homo sapiens), sequence (Q9NYV4 whole entry, looked up): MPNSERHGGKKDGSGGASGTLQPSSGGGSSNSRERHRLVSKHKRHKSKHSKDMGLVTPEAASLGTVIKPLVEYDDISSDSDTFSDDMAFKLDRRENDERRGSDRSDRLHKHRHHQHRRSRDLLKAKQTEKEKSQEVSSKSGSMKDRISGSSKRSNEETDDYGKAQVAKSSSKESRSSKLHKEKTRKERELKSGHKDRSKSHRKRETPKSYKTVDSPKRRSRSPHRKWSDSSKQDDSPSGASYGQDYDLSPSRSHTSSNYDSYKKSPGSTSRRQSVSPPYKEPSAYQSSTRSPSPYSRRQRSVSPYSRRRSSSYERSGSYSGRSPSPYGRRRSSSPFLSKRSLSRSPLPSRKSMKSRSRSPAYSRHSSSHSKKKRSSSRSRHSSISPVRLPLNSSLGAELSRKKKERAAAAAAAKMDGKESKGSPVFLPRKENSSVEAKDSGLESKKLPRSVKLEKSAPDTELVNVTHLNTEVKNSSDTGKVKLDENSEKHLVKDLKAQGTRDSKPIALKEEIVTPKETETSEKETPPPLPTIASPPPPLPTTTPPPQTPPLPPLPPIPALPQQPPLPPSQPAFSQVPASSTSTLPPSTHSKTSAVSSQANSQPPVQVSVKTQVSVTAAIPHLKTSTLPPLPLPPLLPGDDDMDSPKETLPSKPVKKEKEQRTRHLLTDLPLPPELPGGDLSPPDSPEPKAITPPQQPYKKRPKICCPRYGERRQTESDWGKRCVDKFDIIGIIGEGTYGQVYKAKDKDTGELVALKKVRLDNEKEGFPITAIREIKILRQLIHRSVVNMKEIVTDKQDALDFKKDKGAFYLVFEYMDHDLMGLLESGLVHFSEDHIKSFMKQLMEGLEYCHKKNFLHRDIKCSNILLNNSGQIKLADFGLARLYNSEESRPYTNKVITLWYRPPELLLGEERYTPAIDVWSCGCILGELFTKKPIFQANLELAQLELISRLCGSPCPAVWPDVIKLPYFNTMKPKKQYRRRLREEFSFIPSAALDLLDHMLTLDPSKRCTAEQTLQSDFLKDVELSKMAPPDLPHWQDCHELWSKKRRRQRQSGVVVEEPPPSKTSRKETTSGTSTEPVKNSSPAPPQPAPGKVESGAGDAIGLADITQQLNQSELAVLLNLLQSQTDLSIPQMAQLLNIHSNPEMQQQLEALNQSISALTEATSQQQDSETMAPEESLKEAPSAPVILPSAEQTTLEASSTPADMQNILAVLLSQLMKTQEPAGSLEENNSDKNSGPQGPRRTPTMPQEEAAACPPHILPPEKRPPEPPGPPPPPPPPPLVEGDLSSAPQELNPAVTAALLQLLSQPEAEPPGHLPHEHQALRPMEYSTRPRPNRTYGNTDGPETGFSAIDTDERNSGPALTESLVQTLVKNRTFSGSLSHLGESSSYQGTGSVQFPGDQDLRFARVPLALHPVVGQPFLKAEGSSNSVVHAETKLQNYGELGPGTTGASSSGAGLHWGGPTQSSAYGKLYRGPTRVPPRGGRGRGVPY

[3] = target: Tyrosine-protein kinase Fgr (Homo sapiens) (UniProt P09769); test: Inhibition of human recombinant FGR at 15 nM in presence of ATP by radiometric assay relative to control
[4] = target: Dual specificity protein kinase CLK1 (Homo sapiens) (UniProt P49759); test: Inhibition of human recombinant CLK1 at 15 nM in presence of ATP by radiometric assay relative to control
[5] = target: Homeodomain-interacting protein kinase 3 (Homo sapiens) (UniProt Q9H422); test: Inhibition of human recombinant HIPK3 at 15 nM in presence of ATP by radiometric assay relative to control
Homeodomain-interacting protein kinase 3 (Homo sapiens), sequence (Q9H422 whole entry, looked up): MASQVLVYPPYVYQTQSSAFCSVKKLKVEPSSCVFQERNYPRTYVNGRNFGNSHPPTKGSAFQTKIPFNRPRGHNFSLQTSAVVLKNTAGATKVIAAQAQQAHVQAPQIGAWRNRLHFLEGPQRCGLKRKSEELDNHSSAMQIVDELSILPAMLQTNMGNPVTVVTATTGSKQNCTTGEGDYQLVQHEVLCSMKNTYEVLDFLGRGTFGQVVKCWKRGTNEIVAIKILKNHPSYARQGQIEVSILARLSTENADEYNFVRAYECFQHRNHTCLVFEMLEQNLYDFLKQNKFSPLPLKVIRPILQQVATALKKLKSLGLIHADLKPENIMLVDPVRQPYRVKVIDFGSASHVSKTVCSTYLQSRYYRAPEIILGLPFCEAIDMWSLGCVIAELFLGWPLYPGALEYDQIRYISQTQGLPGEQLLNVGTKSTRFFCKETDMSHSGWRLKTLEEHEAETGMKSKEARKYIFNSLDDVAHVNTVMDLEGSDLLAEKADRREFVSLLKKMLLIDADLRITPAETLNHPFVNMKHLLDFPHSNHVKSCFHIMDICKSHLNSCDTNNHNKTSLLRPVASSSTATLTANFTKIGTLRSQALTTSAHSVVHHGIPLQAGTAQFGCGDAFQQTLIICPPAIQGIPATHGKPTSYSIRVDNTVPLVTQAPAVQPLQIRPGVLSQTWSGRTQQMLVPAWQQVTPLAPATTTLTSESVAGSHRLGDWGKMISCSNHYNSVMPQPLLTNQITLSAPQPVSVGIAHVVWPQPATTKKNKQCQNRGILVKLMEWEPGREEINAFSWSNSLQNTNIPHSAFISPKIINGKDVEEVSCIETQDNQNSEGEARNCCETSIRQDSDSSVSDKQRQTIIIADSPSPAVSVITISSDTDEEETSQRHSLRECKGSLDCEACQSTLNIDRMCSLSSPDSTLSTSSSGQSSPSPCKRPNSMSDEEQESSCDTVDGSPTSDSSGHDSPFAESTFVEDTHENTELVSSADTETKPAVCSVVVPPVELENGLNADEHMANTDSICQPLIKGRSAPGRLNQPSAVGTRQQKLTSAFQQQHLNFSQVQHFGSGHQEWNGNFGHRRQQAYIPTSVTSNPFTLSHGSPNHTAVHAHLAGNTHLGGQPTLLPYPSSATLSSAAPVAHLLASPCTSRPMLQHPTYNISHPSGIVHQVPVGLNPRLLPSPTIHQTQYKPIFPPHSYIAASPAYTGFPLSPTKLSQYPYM

[6] = target: SRSF protein kinase 2 (Homo sapiens) (UniProt P78362); test: Inhibition of human recombinant SRPK2 at 15 nM related to control ULK1
[7] = target: T2, MAP kinase-activated protein kinase 5 (Homo sapiens) (UniProt Q8IW41); test: Inhibition of human recombinant MAPKAPK5 at 15 nM related to control ULK1
T2 sequence (whole entry): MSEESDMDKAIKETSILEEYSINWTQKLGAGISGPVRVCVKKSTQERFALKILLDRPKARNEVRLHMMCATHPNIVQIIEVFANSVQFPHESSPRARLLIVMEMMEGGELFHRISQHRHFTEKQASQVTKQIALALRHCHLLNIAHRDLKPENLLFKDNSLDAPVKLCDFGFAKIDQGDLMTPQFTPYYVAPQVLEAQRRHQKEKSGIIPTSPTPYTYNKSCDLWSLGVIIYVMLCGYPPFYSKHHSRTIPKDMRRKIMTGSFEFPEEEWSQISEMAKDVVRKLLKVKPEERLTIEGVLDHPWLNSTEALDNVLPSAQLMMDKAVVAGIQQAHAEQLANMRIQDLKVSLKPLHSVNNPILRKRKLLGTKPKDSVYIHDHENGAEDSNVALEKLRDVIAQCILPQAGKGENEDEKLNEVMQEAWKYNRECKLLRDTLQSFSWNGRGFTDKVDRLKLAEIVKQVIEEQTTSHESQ

[8] = target: Tyrosine-protein kinase JAK1 (Homo sapiens) (UniProt P23458); test: Inhibition of human recombinant JAK1 at 15 nM in presence of ATP by radiometric assay relative to control
[9] = target: Casein kinase I isoform gamma-1 (Homo sapiens) (UniProt Q9HCP0); test: Inhibition of human recombinant CK1g1 at 15 nM in presence of ATP by radiometric assay relative to control
[10] = target: Eukaryotic translation initiation factor 2-alpha kinase 1 (Homo sapiens) (UniProt Q9BQI3); test: Inhibition of human recombinant HRI at 15 nM in presence of ATP by radiometric assay relative to control
Eukaryotic translation initiation factor 2-alpha kinase 1 (Homo sapiens), sequence (Q9BQI3 whole entry): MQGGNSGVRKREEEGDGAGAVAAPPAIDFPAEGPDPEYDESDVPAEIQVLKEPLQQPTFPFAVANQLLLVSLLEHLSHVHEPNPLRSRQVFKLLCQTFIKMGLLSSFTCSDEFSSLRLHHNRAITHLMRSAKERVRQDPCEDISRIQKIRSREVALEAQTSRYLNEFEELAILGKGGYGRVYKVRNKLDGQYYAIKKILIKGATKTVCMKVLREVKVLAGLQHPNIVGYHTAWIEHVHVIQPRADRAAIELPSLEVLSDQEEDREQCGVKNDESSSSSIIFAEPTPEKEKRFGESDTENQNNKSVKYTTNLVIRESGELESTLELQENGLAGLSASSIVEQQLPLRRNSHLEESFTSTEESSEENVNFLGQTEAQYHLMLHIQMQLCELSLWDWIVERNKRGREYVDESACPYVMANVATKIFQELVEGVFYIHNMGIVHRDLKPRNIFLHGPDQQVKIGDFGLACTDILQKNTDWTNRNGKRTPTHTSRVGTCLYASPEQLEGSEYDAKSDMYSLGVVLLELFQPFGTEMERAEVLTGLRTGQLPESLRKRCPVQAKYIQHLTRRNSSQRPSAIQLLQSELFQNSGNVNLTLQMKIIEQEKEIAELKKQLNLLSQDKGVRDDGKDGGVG

[11] = target: DNA-PK/Ku70/Ku85 (Homo sapiens) (UniProt P78527+P12956+P13010); test: Inhibition of human recombinant DNAPK at 15 nM in presence of ATP by radiometric assay relative to control; type: protein-complex assay
[12] = target: Cyclin-dependent kinase-like 3 (Homo sapiens) (UniProt Q8IVW4); test: Inhibition of human recombinant CDKL3 at 15 nM related to control ULK1
Cyclin-dependent kinase-like 3 (Homo sapiens), sequence (Q8IVW4 whole entry, looked up): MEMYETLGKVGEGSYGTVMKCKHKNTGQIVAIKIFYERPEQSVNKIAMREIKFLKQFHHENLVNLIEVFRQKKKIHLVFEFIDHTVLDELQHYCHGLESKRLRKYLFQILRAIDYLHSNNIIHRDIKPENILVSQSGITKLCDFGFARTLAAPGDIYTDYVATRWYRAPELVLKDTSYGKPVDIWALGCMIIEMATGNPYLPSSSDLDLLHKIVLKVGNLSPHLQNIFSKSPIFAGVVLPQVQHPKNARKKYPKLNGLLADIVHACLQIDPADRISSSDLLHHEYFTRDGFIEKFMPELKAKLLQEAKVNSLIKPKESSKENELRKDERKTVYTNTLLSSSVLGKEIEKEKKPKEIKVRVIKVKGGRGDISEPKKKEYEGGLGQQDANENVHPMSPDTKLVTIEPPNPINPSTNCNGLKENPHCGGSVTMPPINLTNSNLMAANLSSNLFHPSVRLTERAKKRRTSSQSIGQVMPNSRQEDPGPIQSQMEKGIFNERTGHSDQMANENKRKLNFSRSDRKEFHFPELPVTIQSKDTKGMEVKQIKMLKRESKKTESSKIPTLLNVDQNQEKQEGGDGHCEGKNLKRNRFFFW

[13] = target: Insulin receptor-related protein (Homo sapiens) (UniProt P14616); test: Inhibition of human recombinant IRR at 15 nM related to control ULK1
[14] = target: Mitogen-activated protein kinase kinase kinase kinase 4 (Homo sapiens) (UniProt O95819); test: Inhibition of human recombinant HGK at 40 nM in presence of ATP by radiometric assay relative to control
[15] = target: Proto-oncogene tyrosine-protein kinase Src (Homo sapiens) (UniProt P12931); test: Inhibition of human recombinant SRC at 40 nM related to control ULK1
[16] = target: T3, TGF-beta receptor type-1 (Homo sapiens) (UniProt P36897); test: Inhibition of human recombinant TGFbR1 at 40 nM in presence of ATP by radiometric assay relative to control
T3 sequence (whole entry): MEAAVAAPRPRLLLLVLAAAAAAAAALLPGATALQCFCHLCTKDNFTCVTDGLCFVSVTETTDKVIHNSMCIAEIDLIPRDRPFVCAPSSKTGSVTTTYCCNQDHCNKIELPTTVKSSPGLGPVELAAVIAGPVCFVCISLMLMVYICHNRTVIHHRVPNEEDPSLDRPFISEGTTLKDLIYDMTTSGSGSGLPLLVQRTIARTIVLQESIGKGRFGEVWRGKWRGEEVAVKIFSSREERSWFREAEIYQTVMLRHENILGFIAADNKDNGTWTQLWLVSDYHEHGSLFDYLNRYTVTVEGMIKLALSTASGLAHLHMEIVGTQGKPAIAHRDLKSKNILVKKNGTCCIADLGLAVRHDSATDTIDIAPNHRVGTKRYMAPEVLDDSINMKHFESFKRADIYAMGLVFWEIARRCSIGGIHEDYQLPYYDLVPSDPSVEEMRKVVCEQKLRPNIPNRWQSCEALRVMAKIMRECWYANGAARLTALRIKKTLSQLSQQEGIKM

[17] = target: Mitogen-activated protein kinase 10 (Homo sapiens) (UniProt P53779); test: Inhibition of human recombinant JNK3 at 40 nM related to control ULK1
Mitogen-activated protein kinase 10 (Homo sapiens), sequence (P53779 whole entry): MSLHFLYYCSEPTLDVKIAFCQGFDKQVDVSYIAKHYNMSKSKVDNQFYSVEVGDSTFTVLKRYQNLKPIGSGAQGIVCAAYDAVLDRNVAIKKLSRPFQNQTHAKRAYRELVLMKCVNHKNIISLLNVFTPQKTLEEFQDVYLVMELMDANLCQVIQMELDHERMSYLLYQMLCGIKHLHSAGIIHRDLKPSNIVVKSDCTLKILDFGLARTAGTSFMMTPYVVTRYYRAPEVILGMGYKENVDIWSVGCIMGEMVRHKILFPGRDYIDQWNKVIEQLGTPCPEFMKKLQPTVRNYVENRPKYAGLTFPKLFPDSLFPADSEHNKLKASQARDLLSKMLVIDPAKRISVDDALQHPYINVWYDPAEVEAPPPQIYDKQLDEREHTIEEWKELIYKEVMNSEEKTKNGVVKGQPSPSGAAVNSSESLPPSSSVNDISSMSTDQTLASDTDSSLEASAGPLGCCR

[18] = target: Dual specificity mitogen-activated protein kinase kinase 1 (Homo sapiens) (UniProt Q02750); test: Inhibition of human recombinant MAP2K1 at 40 nM related to control ULK1
Dual specificity mitogen-activated protein kinase kinase 1 (Homo sapiens), sequence (Q02750 whole entry): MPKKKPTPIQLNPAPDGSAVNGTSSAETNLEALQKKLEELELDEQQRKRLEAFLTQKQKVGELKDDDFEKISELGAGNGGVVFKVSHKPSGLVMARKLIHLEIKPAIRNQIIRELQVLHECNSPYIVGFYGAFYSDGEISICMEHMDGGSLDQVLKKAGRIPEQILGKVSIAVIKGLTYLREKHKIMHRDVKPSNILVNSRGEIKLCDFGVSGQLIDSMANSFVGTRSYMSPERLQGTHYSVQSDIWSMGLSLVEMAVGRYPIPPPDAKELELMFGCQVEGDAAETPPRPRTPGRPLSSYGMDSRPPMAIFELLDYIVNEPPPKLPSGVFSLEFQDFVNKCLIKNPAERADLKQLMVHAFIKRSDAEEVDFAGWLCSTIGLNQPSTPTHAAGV

fold change (FC) [1]: 0.05 | fold change (FC) [2]: 0
SMILES: CNC(=O)c1ccccc1Oc1nc(Nc2cc(OC)c(OC)c(OC)c2)ncc1Br

inhibition [3]: 43% | inhibition [4]: 84% | inhibition [5]: 0% | fold change (FC) [6]: 0 | fold change (FC) [7]: 0 | inhibition [8]: 0% | inhibition [9]: 0% | inhibition [10]: 0% | inhibition [11]: 0% | fold change (FC) [12]: 0.39 | fold change (FC) [13]: 0.02
SMILES: CC(C)[C@H](NC(=O)c1cc(-c2cnn3cc(-c4ccc(OCCN5CCCCC5)cc4)cnc23)cs1)C(F)(F)F

inhibition [14]: 0% | fold change (FC) [15]: 0.03 | inhibition [16]: 0% | fold change (FC) [17]: 0 | fold change (FC) [18]: 0
SMILES: O=C(N[C@@H](C1CC1)C(F)(F)F)c1cc(-c2cnn3cc(-c4ccc(F)cc4)cnc23)cs1
